Assay results reported in patent US20140273006A1, “METHOD OF THERAPY SELECTION FOR PATIENTS WITH CANCER” (NESTEC S.A., priority 2011, published 2014).

Experiments:
[1] = system: PI3K; test: CEER profile of FNA sample of Patient #3 after PI3K inhibitor treatment; type: in vivo, human; settings: Patient #3, FNA sample after treatment; confirmed by CT scan
Experimental: In a retrospective study, a series of samples taken from patients with cancer were evaluated to determine if pathway profiling using the CEER assay is predictive of responsiveness to PI3K treatment. Samples analyzed included those from patients on a therapy time course, e.g., prior to receiving therapy, after initiating therapy, and during the course of therapy.
Following treatment with the PI3K inhibitor drug BAY806946, another sample was taken and analyzed. […] This finding was confirmed by CT scan.

[2] = system: H1975 cells; test: CEER pathway profiling of H1975 cells after PI3K inhibitor, MEK inhibitor or combination treatment; type: cell-based, human; settings: for levels of activated PI3K: H1975 cells treated with either PI3K inhibitor, MEK inhibitor, or combinations; for levels of other activated proteins (p-MEK, p-ERK, p-AKT, p-PRAS40, p-70S6K, and p-RPS6): H1975 cells, in response to treatment
Experimental: (§1) In one particular embodiment, the proximity assay (e.g., CEER) for detecting the activation level or status of an analyte of interest comprises: • (i) incubating the cellular extract with one or a plurality of dilution series of capture antibodies to form a plurality of captured analytes; • (ii) incubating the plurality of captured analytes with detection antibodies comprising one or a plurality of activation state-independent antibodies and one or a plurality of activation state-dependent antibodies specific for the corresponding analytes to form a plurality of detectable captured analytes, • wherein the activation state-independent antibodies are labeled with a facilitating moiety, the activation state-dependent antibodies are labeled with a first member of a signal amplification pair, and the facilitating moiety generates an oxidizing agent which channels to and reacts with the first member of the signal amplification pair; • (iii) incubating the plurality of detectable captured analytes with a second member of the signal amplification pair to generate an amplified signal; and • (iv) detecting the amplified signal generated from the first and second members of the signal amplification pair.
The levels of other downstream signaling components of the pathway were measured, including HER1, HER2, cMET, PI3K, AKT, ERK, PTEN, MEK, p70S6K, PRAS40, RPS6 and PDK. Cell lines derived from non-small cell lung cancer such as NCI-H460, NCI-H647, NCI-H1155, NCI-1299, NCI-1975, NCI-H2228, and NCI-H661 were also used. The different therapies tested included a PI3K inhibitor alone at low or high dose, a MEK inhibitor alone at low or high dose, and a PI3K inhibitor plus a MEK inhibitor together at low dose or high dose. The cells were assayed at either 4 hours after treatment or 24 hours (see, * in FIGS. 6-10) after treatment.

[3] = system: PI3K-related pathways; test: CEER-based analysis of BCA clinical samples from patients treated with BYL719; type: in vivo, human
Experimental: CEER analysis includes normalizing the measured expression/activation levels of signaling transduction analytes against standard controls using statistical algorithms. In particular, Relative Fluorescence Unit (RFU) values are converted to Computed Units (CU), a standard functional unit of measure based on cell line controls with known levels of analyte expression. For each slide of the CEER assay, a standard curve of serial diluted cell lysate is prepared for a particular analyte-positive cell line (e.g., HER1-positive cell line is MDA-MB-468; HER2-positive cell line is SKBr3). Thus, normalized levels of each particular analyte and the degree of phosphorylation in each sample can be obtained against standard cell lines.
This example illustrates a CEER-based analysis of BCA clinical samples from patients treated with a PI3K inhibitor, BYL719 (Novartis). In particular, signaling pathway profiles from individual patients are shown to shift during the course of BYL719 treatment. Therefore, CEER-based analysis of PI3K-related pathways allows for responsive, individualized management of BYL719 treatment to improve clinical outcomes. Oncogenic receptor tyrosine kinases (HER1, HER2, HER3, cMET, IGF-1R, and cKIT) were quantified, as well as PI3K and other tyrosine kinase signaling cascade components including SHC, AKT, ERK, MEK, RSK, pRAS 40, RPS6, P70S6K, and PTEN. Levels of total protein and activated protein were measured.

[4] = system: Stage III triple negative breast cancer; test: Clinical response of patients with triple negative breast cancer to combination therapy; type: in vivo, human; settings: Patient #4; combination therapy of Herceptin and Lapatinib
Excerpt: Patient #4 represents a patient diagnosed with Stage III triple negative breast cancer (e.g., ER-, PR-, HER2-). The patient underwent radical mastectomy.
Patient #5 represents a patient diagnosed with Stage III triple negative breast cancer (e.g., ER-, PR-, HER2-). The patient underwent radical mastectomy.

[5] = system: PI3K, HER2 and IGF1R activation; test: CEER pathway profile of Patient #5 samples before and after treatment; type: in vivo, human; settings: Patient #5, after treatment vs baseline
Excerpt: The samples were cerebrospinal fluid (CSF), fine needle aspirate (FNA) and a biopsy.

[6] = system: Calu-6; test: IC50 of the PI3K inhibitor drug (GDC0941) versus activated PI3K levels, Calu-6; type: cell-based, human; settings: Calu-6, two more alterations (multiple mutations and PI3K activation)
Excerpt: (§2) FIG. 13 illustrates that the CEER assay can be used to calculate the IC50 of an anti-cancer drug relative to the level of activated PI3K and other downstream components of the HER1/HER2/cMET pathway. […] In some cancer cells inhibition of PI3K activation corresponds to inhibition of activation of downstream proteins. In addition the extent of the inhibition is specific to the cell line and the inhibitor treatment.
(§3) The relationship between the IC50 of the PI3K inhibitor drug (GDC0941) and activated PI3K levels was analyzed in several cell lines. It was determined that cell lines (e.g., H1651 or H2087) with PI3K activation have low IC50. H1651 cells carry no known genetic mutations but have high EGFR expression. H2087 has NRAS and BRAF mutations. Cell lines (e.g., Calu-6) with two more alterations such as multiple mutations (e.g., MAPK mutations) and PI3K activation had high IC50 values. Thus, phospho-PI3K can be an indicator or predictor of sensitivity to PI3K inhibitors.

[7] = system: H2087; test: IC50 of the PI3K inhibitor drug (GDC0941) versus activated PI3K levels, H2087; type: cell-based, human; settings: H2087, cell line with PI3K activation
Excerpt: as §2, §3

[8] = system: cell lines with inactive PTEN; test: IC50 of the PI3K inhibitor in cell lines by PTEN status (FIG. 14); type: cell-based, human; settings: cell lines with inactive PTEN (point mutation or null mutation)
Experimental: as §3

[9] = system: H1651; test: IC50 of the PI3K inhibitor drug (GDC0941) versus activated PI3K levels, H1651; type: cell-based, human; settings: H1651, cell line with PI3K activation
Excerpt: as §2, §3

[10] = system: cell line H460; test: CEER pathway profiling of cell line H460 after PI3K inhibitor, MEK inhibitor or combination treatment; type: cell-based, human; settings: PI3K inhibitor alone or in combination with a MEK inhibitor, day 8, 9, 12, 13, 4 hours or 24 hours of drug exposure
Experimental: as §1
The levels of other downstream signaling components of the pathway were measured, including HER1, HER2, cMET, PI3K, AKT, ERK, PTEN, MEK, p70S6K, PRAS40, RPS6 and PDK. […]

COc1c(OCCCN2CCOCC2)ccc2c1N=C(NC(=O)c1cnc(N)nc1)N1CCN=C21 [BAY806946]
PI3K driven cell proliferation [1]: successfully inhibited

COc1cc(F)c(F)c(Nc2ccc(I)cc2F)c1NS(=O)(=O)C1(C[C@H](O)CO)CC1 [BAY869766]
levels of activated PI3K [2]: relatively similar | levels of other activated proteins (p-MEK, p-ERK, p-AKT, p-PRAS40, p-70S6K, and p-RPS6) [2]: greatly lower

Cc1nc(NC(=O)N2CCC[C@H]2C(N)=O)sc1-c1ccnc(C(C)(C)C(F)(F)F)c1 [BYL719]
level of activated HER3 ([3]; Patient 1, Day 8 of treatment): increased | p-AKT, p-pPRAS, p-P70S6, and p-RPS6 ([3]; Patient 1, Day 8 of treatment): downregulation | total HER3 expression ([3]; Patient 1, Day 8 of treatment): increased | HER3 expression and activation ([3]; Patient 1, Day 28 of treatment): higher than at Day 8 | p-AKT, p-PRAS, p-P70S6 and p-RPS6 levels ([3]; Patient 1, Day 28 of treatment): higher than at Day 8 | activation of PRAS40 ([3]; Patient 1, course of treatment): initial decrease in activation of PRAS40 was observed, followed by an increase | activation of AKT ([3]; Patient 1, upon treatment): decreased | activation of HER3, ERK, MEK, and RSK ([3]; Patient 1, upon treatment): increased | p-AKT and p-PRAS ([3]; Patient 2, Day 8 of treatment): downregulated | p-MEK, p-ERK, and p-RSK ([3]; Patient 2, Day 8 of treatment): upregulated | p-AKT, p-PRAS, p-MEK, p-ERK, and p-RSK ([3]; Patient 2, Day 28): down-regulated | activation of ERK, MEK, and RSK ([3]; Patient 2, course of treatment): initial increase, followed by a decrease | activation of AKT and PRAS40 ([3]; Patient 2, upon treatment): decrease | activated HER1 ([3]; Patient 3, Day 8): upregulated | activated HER2, HER3 and cMET ([3]; Patient 3, Day 8): down-regulated | levels of p-AKT, p-PRAS, p-MEK, p-ERK and p-RSK ([3]; Patient 3, Day 8): downregulated | RTK activation ([3]; Patient 3, upon treatment): general decrease | PRAS40 activation ([3]; Patient 4): decrease | p-AKT, p-PRAS, p-MEK, p-ERK, and p-RSK ([3]; Patient 4, Day 8): downregulation | PRAS40 activation ([3]; Patient 5): decrease | p-MEK, p-ERK and p-RSK levels ([3]; Patient 5, Day 8 of therapy): Little change | P-AKT and p-RAS ([3]; Patient 5, on therapy): slightly upregulated | p-RPS6 ([3]; Patient 5, on therapy): highly upregulated

CS(=O)(=O)CCNCc1ccc(-c2ccc3ncnc(Nc4ccc(OCc5cccc(F)c5)c(Cl)c4)c3c2)o1 [Lapatinib, lapatinib]
response to treatment [4]: responded to treatment | PI3K activation as well as HER2 and IGF1R activation [5]: decreased

CS(=O)(=O)N1CCN(Cc2cc3nc(-c4cccc5[nH]ncc45)nc(N4CCOCC4)c3s2)CC1 [GDC0941]
IC50 [6]: high | IC50 [7]: low | IC50 values compared with cell lines with PTEN wild-type status [8]: higher | IC50 [9]: low

COc1c(OCCCN2CCOCC2)ccc2c1N=C(NC(=O)c1cnc(N)nc1)N1CCN=C21.Cl.Cl [BAY841236]
levels of activated PI3K [2]: relatively similar | levels of other activated proteins (p-MEK, p-ERK, p-AKT, p-PRAS40, p-70S6K, and p-RPS6) [2]: greatly lower | activated proteins of the HER1/HER2/cMET pathway (p-PI3K, p-AKT, p-PRAS40, p-70S6K, and p-RPS6) [10]: downregulated
